Assay results taken from US8268856B2, “Method to use compositions having antidepressant anxiolytic and other neurological activity and compositions of matter” (priority 2007, dated 2012).

Key:
serotonin receptors = assay: Affinity to serotonin receptors (receptor binding panel); set-up: species or system human or rodent
Description: Evaluation of binding affinity of isolated compounds to serotonin receptors. In vitro testing of isolated compounds was completed using a small panel of receptor binding assays and then validated in a comprehensive panel by the NIMH Psychoactive Drug Screening Program. Pharmacological and functional screening of isolated molecules was performed on cloned human or rodent CNS receptors, channels, and transporters. Hu, J-F., et al. New Antiinfective and Human 5-HT2 Receptor Binding Natural and Semisynthetic Compounds from the Jamaican Sponge Smenospongia aurea. 65 Jour. of Nat. Prod. 476-80 (2002).
(§1) Porsolt R D, et al. Behavioral Despair In Mice: A Primary Screening Test for Antidepressants, 229 Arch. Int. Pharmacodyn. 327-36 (1977). […] In order to control for false positives, as has been previously observed with psychostimulants, Cryan, J., et al. Assessing Substrates Underlying The Behavioral Effects Of Antidepressants Using The Modified Rat Forced Swimming Test. 29 Neurosci Biobehav Rev. 547-69 (2005) locomotor activity of the animals was monitored using an automated photobeam activity monitoring system. Lucki. I. The Forced Swimming Test As A Model For Core And Component Behavioral Effects Of Antidepressant Drugs. 8 Behav. Pharmacol. 522-32 (1997).

male Swiss Webster mice [1] = assay: Locomotor activity test, Swiss Webster mice; assay type: in vivo, mouse; settings: IP, photobeam interruptions, versus vehicle
Description: (§2) Locomotor Activity and the FST. To evaluate the isolated compounds for antidepressant-like activity, male Swiss Webster mice (Harlan, Indianapolis, Ind.) (25-30 g weight) were used. Animals were housed in groups of five with a 12 h light/12 h dark cycle. Food and water were provided at libitum. All procedures involving animals were performed as approved by the Institutional Animal Care and Use Committee of the University of Mississippi. Animals were randomly divided into groups (n=6-10/group). Each group was injected IP with either the compound (1-20 mg/kg), desipramine (20 mg/kg), or vehicle (saline, 10% ethanol or 10% ethanol/1% DMSO). Following injection, locomotor activity was monitored using an automated activity monitoring system (San Diego Instruments, San Diego, Calif.). Each mouse was placed in a Plexiglas enclosure and locomotor activity was recorded as the number of photobeam interruptions for 30 min after drug injection. The activity for the last ten min was quantified and analyzed. Immediately at the end of the locomotor session, individual mice were subjected to the FST. The mice were individually placed in a clear plastic cylinder (23 cm high, 10 cm internal diameter) filled with deionized water (8 cm high) at 25° C. The mice were recorded with a video camera (positioned at about 30 cm above the cylinder) for a total of 6 min. The total period of immobility during the last 4 min was timed by three independent observers. The mean immobility time was then calculated. A mouse was judged to be immobile when it remained afloat, making only minimal movements to keep its head above water.
Effect of select compounds on locomotor activity. Since reductions in immobility time is the primary criterion to assess antidepressant like activity in both the FST and TST, it is crucial to confirm that the effects observed in both tests are not attributed to specific stimulant action of the tested compounds, which would be reflected as enhancement of the locomotor activity. Accordingly, the effect of tested compounds on locomotor activity was evaluated using an automated activity monitoring system.

HIV-1 = assay: Activity against HIV-1
[2] = system: Mycobacterium tuberculosis; assay: Activity against Mycobacterium tuberculosis
HCV = assay: Activity against HCV
male Swiss Webster mice [3] = assay: Porsolt forced swim test (FST); assay type: in vivo, mouse; settings: male Swiss Webster mice, IP, immobility during last 4 min of 6 min swim, versus vehicle
Description: as §2
For the FST, immobility times of the three independent rates were averaged for each mouse and data were analyzed using one way analysis of variance (ANOVA) followed by Bonferroni Multiple comparison posthoc tests to determine statistical differences from the corresponding vehicle control. Chick distress vocalization data were analyzed by two-way repeated measures ANOVA, one-way ANOVA and simple effects analyses with post-hoc comparisons conducted using Fisher's LSD test. p-Values less than 0.05 were considered statistically significant.
as §1

Structure (SMILES): Cc1nccc2c1C(C)(C)Nc1cc(Br)ccc1-2 [Veranamine, 8-bromo-4,5,5-trimethyl-5,6-dihydrobenzo[c][2,7]naphthyridine]
- affinities to serotonin receptors (serotonin receptors): moderate affinities
- effect on locomotor activity (male Swiss Webster mice [1]): not the consequence of its stimulant activity
- activity against HIV-1 (HIV-1): not active
- activity against Mycobacterium tuberculosis [2]: not active
- activity against HCV (HCV): not active
- antidepressant-like activity / effect on immobility time in FST (male Swiss Webster mice [3]): potent antidepressant activity at the dose of 20 mg/kg
